Assay [1] deals with Trypanosoma brucei rhodesiense. As to the kind of experiment: Trypanocidal activity against Trypanosoma brucei rhodesiense assessed as parasite growth inhibition at 50 ug/ml incubated for 3 days by Celltiter-Glo luminescence assay. The class given is functional. Also noted: scale not given: the % may be the effect or the level left. To be noted: dose 50 µg/ml; time 3 day.
Assay [2] has as its system Trypanosoma brucei rhodesiense. Nature of the assay: Trypanocidal activity against Trypanosoma brucei rhodesiense IL1501 assessed as parasite growth inhibition at 50 ug/ml incubated for 3 days by Celltiter-Glo luminescence assay. It is filed as functional. Also noted: scale not given: the % may be the effect or the level left. The settings on record: dose 50 µg/ml; time 3 day. A general note: ATP-based viability assays read luminescence as a measure of living cells.

Assay [3] has as its system Trypanosoma evansi. Nature of the assay: Trypanocidal activity against Trypanosoma evansi assessed as parasite growth inhibition at 50 ug/ml incubated for 3 days by Celltiter-Glo luminescence assay. It is filed as functional. Details: scale not given: the % may be the effect or the level left. The settings on record: dose 50 µg/ml; time 3 day.
Assay [4] deals with Trypanosoma brucei brucei. As to the kind of experiment: Trypanocidal activity against Trypanosoma brucei brucei GUTat3.1 assessed as parasite growth inhibition at 50 ug/ml incubated for 3 days by Celltiter-Glo luminescence assay. The class given is functional. Details: scale not given: the % may be the effect or the level left. To be noted: dose 50 µg/ml; time 3 day.
In assay [5] the test system is Trypanosoma brucei gambiense. As to the kind of experiment: Trypanocidal activity against Trypanosoma brucei gambiense IL1922 assessed as parasite growth inhibition at 50 ug/ml incubated for 3 days by Celltiter-Glo luminescence assay. Also noted: scale not given: the % may be the effect or the level left. It is filed as functional. The settings on record: dose 50 µg/ml; time 3 day.

Assay [6] deals with Trypanosoma congolense. As to the kind of experiment: Trypanocidal activity against Trypanosoma congolense IL3000 assessed as parasite growth inhibition at 50 ug/ml incubated for 3 days by Celltiter-Glo luminescence assay. Also noted: scale not given: the % may be the effect or the level left. To be noted: dose 50 µg/ml; time 3 day.
Assay [7] relates to Trypanosoma brucei rhodesiense. As to the kind of experiment: Trypanocidal activity against Trypanosoma brucei rhodesiense assessed as parasite growth inhibition incubated for 3 days by Celltiter-Glo luminescence assay. The settings on record: 72 h. It is filed as functional, organism-based.
In assay [8] the test system is Trypanosoma congolense. Nature of the assay: Trypanocidal activity against Trypanosoma congolense IL3000 assessed as parasite growth inhibition incubated for 3 days by Celltiter-Glo luminescence assay. To be noted: IL3000, 72 h.
The subject of assay [9] is Trypanosoma evansi. Nature of the assay: Trypanocidal activity against Trypanosoma evansi assessed as parasite growth inhibition incubated for 3 days by Celltiter-Glo luminescence assay. It is filed as functional, organism-based. The settings on record: 72 h.

Converted amounts (≈) assume the structure as drawn.

Activity and IC50 data for 22 compounds are collected here from ChEMBL document CHEMBL5042509, “Benzophenone Glucosides and B-Type Proanthocyanidin Dimers from Zambian Cassia abbreviata and Their Trypanocidal Activities” (J Nat Prod, 2022).

Turning to `Oc1cc(O)c2c(c1)O[C@H](c1ccc(O)c(O)c1)[C@H](O)C2` [(-)-EPICATECHIN], the Activity in [1] worked out at 74.01%; in assay [2], 8.81%; in the assay with Trypanosoma evansi [3], 54.44%; in assay [4] it was 29.77%; in assay [5] it was 11.49%; in the assay with Trypanosoma congolense [6], 13.33%.

Turning to `Oc1ccc2c(c1)O[C@H](c1ccc(O)c(O)c1)[C@@H](O)[C@@H]2c1c(O)cc(O)c2c1O[C@H](c1ccc(O)c(O)c1)[C@@H](O)C2`, the Activity stood at 99.6% in assay [1]; 2.52% in [2]; 32.9% with Trypanosoma evansi [3]; 20.31% in [4]; 4.59% in [5]; 36.23% in the assay with Trypanosoma congolense [6].

Take `COc1cc(O)cc(OC)c1OC` [ANTIAROL]: the Activity in [1] is recorded as 94.68%; in assay [2], 20.12%; in the assay with Trypanosoma evansi [3], 0%; in [4], 32.18%; in assay [5], 43.51%; with Trypanosoma congolense [6], 1.68%. The IC50 in assay [7] came out at 24.9 µg/mL (≈ 135 µM).

For the compound `COc1cc(O[C@@H]2O[C@H](CO)[C@@H](O)[C@H](O)[C@H]2O[C@@H]2O[C@@H](C)[C@H](OC(C)=O)[C@@H](OC(C)=O)[C@H]2OC(C)=O)cc(OC)c1OC`, the Activity in assay [1] is on record as 89.65%; in assay [2], 27.17%; with Trypanosoma evansi [3], 0%; in [4], 44.45%; in assay [5], 38.79%; in the assay on Trypanosoma congolense [6], 91.43%. Besides, the figures for the half-inhibitory concentration (IC50) (in assay [7]; in the assay on Trypanosoma congolense [8]) were 33.3 µg/mL (≈ 53.8 µM) and 40.9 µg/mL (≈ 66.1 µM), respectively.

Turning to `Oc1ccc2c(c1)O[C@H](c1cc(O)c(O)c(O)c1)[C@@H](O)[C@H]2c1c(O)cc(O)c2c1O[C@H](c1ccc(O)c(O)c1)[C@H](O)C2`, the Activity in assay [1] turned out to be 100.09%; in assay [2] it was 60.48%; in the assay on Trypanosoma evansi [3], 100.24%; in assay [4], 44.09%; in assay [5], 83.48%; with Trypanosoma congolense [6], 100.13%. Moreover, the IC50 in [7] worked out at 5.42 µg/mL (≈ 9.37 µM); in the assay with Trypanosoma evansi [9], 5.51 µg/mL (≈ 9.52 µM); in the assay with Trypanosoma congolense [8], 7.15 µg/mL (≈ 12.4 µM).

Take `COc1cc(C(=O)O)cc(OC)c1O[C@@H]1O[C@H](CO)[C@@H](O)[C@H](O)[C@H]1O`: the Activity in assay [1] was 53.1%; in assay [2], 20.63%; in the assay with Trypanosoma evansi [3] it was 0%; in [4], 9.64%; in assay [5], 14.44%; in the assay on Trypanosoma congolense [6] it was 0%.

Regarding `Cc1cc(O)c(C(=O)c2c(O)cccc2O[C@@H]2O[C@H](CO)[C@@H](O)[C@H](O)[C@H]2O)c(C(=O)O)c1`, the Activity in assay [1] is given as 34.99%; in assay [2] it was 2.22%; with Trypanosoma evansi [3], 0%; in assay [4], 15.74%; in assay [5], 5.44%; in the assay with Trypanosoma congolense [6] it was 20.76%.

For `Oc1ccc2c(c1)O[C@H](c1ccc(O)c(O)c1)[C@@H](O)[C@H]2c1c(O)cc(O)c2c1O[C@H](c1ccc(O)c(O)c1)[C@H](O)C2`, the Activity in [1] came out at 82.26%; in [2], 19.57%; with Trypanosoma evansi [3], 4.88%; in [4], 12.85%; in assay [5], 9.9%; in the assay on Trypanosoma congolense [6], 37.33%.

Turning to `Oc1ccc2c(c1)O[C@H](c1ccc(O)c(O)c1)[C@@H](O)[C@@H]2c1c(O)cc(O)c2c1O[C@H](c1cc(O)c(O)c(O)c1)[C@H](O)C2`, the Activity in assay [1] is given as 99.93%; in [2], 24.11%; in the assay with Trypanosoma evansi [3], 57.8%; in [4], 10.18%; in assay [5], 14.68%; in the assay on Trypanosoma congolense [6] it was 72.01%. Moreover, the IC50 in assay [7] amounted to 10.9 µg/mL (≈ 18.9 µM); with Trypanosoma evansi [9], 12.2 µg/mL (≈ 21.2 µM); in the assay on Trypanosoma congolense [8], 13.1 µg/mL (≈ 22.6 µM).

Regarding `CC1CS(=O)(=O)CCN1/N=C/c1ccc([N+](=O)[O-])o1` (configuration not stated) [NIFURTIMOX], the IC50 in assay [7] came out at 0.42 µg/mL (≈ 1.46 µM); with Trypanosoma congolense [8], 0.3 µg/mL (≈ 1.04 µM).

As to `Oc1ccc([C@H]2Oc3cc(O)ccc3[C@H](c3c(O)cc(O)c4c3O[C@H](c3ccc(O)c(O)c3)[C@H](O)C4)[C@@H]2O)cc1`, the Activity in assay [1] is 59.53%; in assay [2] it was 1.57%; in the assay with Trypanosoma evansi [3], 0%; in assay [4], 13.03%; in assay [5], 10.01%; in the assay on Trypanosoma congolense [6] it was 35.26%.

For the compound `COc1cc(O[C@@H]2O[C@H](CO)[C@@H](O)[C@H](O)[C@H]2O[C@@H]2OC[C@](O)(CO)[C@H]2O)cc(OC)c1OC`, the Activity in assay [1] is 60.74%; in assay [2] it was 0.73%; in the assay on Trypanosoma evansi [3], 0%; in [4] it was 0%; in assay [5], 0%; in the assay with Trypanosoma congolense [6] it was 0%.

Regarding `Oc1ccc([C@H]2Oc3cc(O)ccc3[C@@H](c3c(O)cc(O)c4c3O[C@H](c3cc(O)c(O)c(O)c3)[C@H](O)C4)[C@@H]2O)cc1`, the Activity is 90.97% in assay [1]; 57.75% in assay [2]; 69.94% with Trypanosoma evansi [3]; 48.67% in assay [4]; 57.94% in [5]; 69.89% in the assay on Trypanosoma congolense [6]. Besides, the concentration for half-maximal inhibition (IC50) in assay [7] worked out at 4.13 µg/mL (≈ 7.34 µM); with Trypanosoma evansi [9] it was 3.32 µg/mL (≈ 5.9 µM); in the assay with Trypanosoma congolense [8] it was 5.32 µg/mL (≈ 9.46 µM).

Take `COc1cc(O[C@@H]2O[C@H](CO)[C@@H](O)[C@H](O)[C@H]2O[C@@H]2O[C@@H](C)[C@H](O)[C@@H](O)[C@H]2O)cc(OC)c1OC`: the Activity in assay [1] was found to be 5.42%; in assay [2], 2.26%; in the assay on Trypanosoma evansi [3], 0%; in [4], 0.72%; in assay [5], 0.1%; in the assay with Trypanosoma congolense [6] it was 0%.

On to `Oc1ccc([C@H]2Oc3cc(O)ccc3[C@@H](c3c(O)cc(O)c4c3O[C@H](c3cc(O)c(O)c(O)c3)[C@@H](O)C4)[C@@H]2O)cc1`, for which the Activity in [1] was determined as 99.92%; in assay [2], 20.49%; in the assay on Trypanosoma evansi [3], 99.77%; in [4] it was 35.39%; in [5], 26.67%; in the assay with Trypanosoma congolense [6], 99.74%. Moreover, the values for the IC50 (in [7]; in the assay on Trypanosoma evansi [9]; in the assay with Trypanosoma congolense [8]) were 4.02 µg/mL (≈ 7.15 µM), 14.9 µg/mL (≈ 26.5 µM) and 7.53 µg/mL (≈ 13.4 µM), respectively.

As for `Oc1ccc([C@H]2Oc3cc(O)ccc3[C@@H](c3c(O)cc(O)c4c3O[C@H](c3ccc(O)c(O)c3)[C@@H](O)C4)[C@@H]2O)cc1`, the Activity is 88.52% in assay [1]; 6.96% in [2]; 0% with Trypanosoma evansi [3]; 20.95% in assay [4]; 6.42% in [5]; 20.82% in the assay on Trypanosoma congolense [6].

Consider `COc1ccc(O[C@@H]2O[C@H](CO)[C@@H](O)[C@H](O)[C@H]2O[C@@H]2OC[C@](O)(CO)[C@H]2O)cc1OC`, for which the Activity amounted to 2.69% in assay [1]; 0% in [2]; 0.6% in the assay with Trypanosoma evansi [3]; 0% in assay [4]; 0% in [5]; 0% in the assay with Trypanosoma congolense [6].

On to `Oc1cc(O)c2c(c1)O[C@H](c1ccc(O)c(O)c1)[C@@H](O)C2` [CIANIDANOL], for which the Activity in [1] was 100.03%; in [2], 2.35%; in the assay on Trypanosoma evansi [3], 66.43%; in [4], 22.82%; in assay [5], 9.71%; in the assay with Trypanosoma congolense [6], 22.03%. For the same compound, the 50% inhibitory concentration (IC50) in assay [7] was determined as 47.6 µg/mL (≈ 164 µM); in the assay with Trypanosoma evansi [9] it was 14.9 µg/mL (≈ 51.3 µM).

Take `Oc1ccc2c(c1)O[C@H](c1ccc(O)c(O)c1)[C@@H](O)[C@H]2c1c(O)cc(O)c2c1O[C@H](c1cc(O)c(O)c(O)c1)[C@H](O)C2`: the Activity turned out to be 100.02% in assay [1]; 42.7% in assay [2]; 100.12% in the assay with Trypanosoma evansi [3]; 26.31% in assay [4]; 73.09% in assay [5]; 99.96% in the assay on Trypanosoma congolense [6]. The IC50 was found to be 6.79 µg/mL (≈ 11.7 µM) in [7], 6.52 µg/mL (≈ 11.3 µM) with Trypanosoma evansi [9] and 9.26 µg/mL (≈ 16 µM) in the assay with Trypanosoma congolense [8].

`COc1ccc(O[C@@H]2O[C@H](CO)[C@@H](O)[C@H](O)[C@H]2O)cc1OC`: the Activity in assay [1] is listed as 8.9%; in assay [2], 0%; with Trypanosoma evansi [3], 0%; in [4], 0%; in assay [5] it was 0%; in the assay on Trypanosoma congolense [6] it was 0%.

For `Oc1ccc([C@H]2Oc3c(c(O)cc(O)c3[C@@H]3c4ccc(O)cc4O[C@H](c4ccc(O)c(O)c4)[C@H]3O)C[C@H]2O)cc1`, the Activity in assay [1] worked out at 90.49%; in assay [2], 9.66%; with Trypanosoma evansi [3], 0%; in [4], 16.43%; in assay [5] it was 10.09%; in the assay on Trypanosoma congolense [6], 33.1%.

In the case of `Cc1cc(O[C@@H]2O[C@H](CO)[C@@H](O)[C@H](O)[C@H]2O)c(C(=O)c2c(O)cccc2O)c(C(=O)O)c1`, the Activity in assay [1] was found to be 85.05%; in [2] it was 3.46%; in the assay on Trypanosoma evansi [3] it was 29.06%; in [4] it was 18.9%; in [5] it was 7.09%.

In general, IC50 refers to the concentration that gives 50% inhibition.
